Measurements published in US20250152585A1, “PHARMACEUTICAL COMPOUND” (Duke Street Bio Limited, priority 2022, published 2025).
Like-named read-outs stand apart in the source and are kept apart here.

Legend:
[1] = biological target: T1, N-terminally FLAG-tagged PARP2 (amino acids 1-583) (Homo sapiens, UniProt Q9UGN5); test: PARP2 probe displacement HTRF assay; type: binding; conditions: binned Kd
T1 construct: N-terminally FLAG-tagged PARP2 (amino acids 1-583)
Description: Data analysis was performed identical as for PARP1.

[2] = biological target: T2, full length N-terminally FLAG-tagged PARP1 (Homo sapiens, UniProt P09874); test: PARP1 biochemical DELFIA assay (auto-PARylation); parameters: recombinant full length human N-terminally FLAG-tagged PARP1
T2 sequence (P09874 whole entry): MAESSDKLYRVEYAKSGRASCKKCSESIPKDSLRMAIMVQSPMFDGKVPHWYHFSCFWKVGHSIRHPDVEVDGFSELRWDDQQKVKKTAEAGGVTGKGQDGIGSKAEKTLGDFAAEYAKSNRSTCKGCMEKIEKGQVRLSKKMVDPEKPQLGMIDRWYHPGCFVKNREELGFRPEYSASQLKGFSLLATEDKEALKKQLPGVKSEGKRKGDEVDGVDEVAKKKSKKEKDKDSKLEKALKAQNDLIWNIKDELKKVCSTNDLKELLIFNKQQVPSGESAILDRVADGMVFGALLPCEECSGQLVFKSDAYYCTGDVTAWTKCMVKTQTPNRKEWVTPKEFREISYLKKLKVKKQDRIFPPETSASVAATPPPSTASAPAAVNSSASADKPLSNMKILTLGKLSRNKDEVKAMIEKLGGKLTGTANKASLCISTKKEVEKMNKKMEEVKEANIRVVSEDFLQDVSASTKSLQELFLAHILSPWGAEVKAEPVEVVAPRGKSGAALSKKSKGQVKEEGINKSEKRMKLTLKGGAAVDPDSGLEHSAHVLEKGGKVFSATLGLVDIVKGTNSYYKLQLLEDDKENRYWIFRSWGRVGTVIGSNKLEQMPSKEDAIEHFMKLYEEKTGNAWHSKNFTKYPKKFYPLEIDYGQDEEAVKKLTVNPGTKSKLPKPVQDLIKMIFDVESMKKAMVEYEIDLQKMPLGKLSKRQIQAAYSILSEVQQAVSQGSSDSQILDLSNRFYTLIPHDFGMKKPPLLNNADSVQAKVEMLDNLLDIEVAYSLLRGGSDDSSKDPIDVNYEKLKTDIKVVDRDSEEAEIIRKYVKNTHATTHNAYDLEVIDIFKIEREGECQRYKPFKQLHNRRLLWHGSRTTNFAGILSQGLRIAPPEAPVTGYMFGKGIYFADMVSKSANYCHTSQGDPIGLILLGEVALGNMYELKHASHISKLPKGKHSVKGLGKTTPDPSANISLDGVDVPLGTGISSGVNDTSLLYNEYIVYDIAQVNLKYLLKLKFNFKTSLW

[3] = biological target: T2, full length N-terminally FLAG-tagged PARP1; test: PARP1 probe displacement HTRF assay; conditions: for Selectivity: PARP1 over PARP2, ratio Kd (PARP2)/Kd (PARP1); for Kd: binned Kd
[4] = binned IC50, PARP1 biochemical DELFIA assay
[5] = read-out: PARP1 HTRF, PARP1 probe displacement HTRF
[6] = binned IC50, biochemical auto-PARylation assay
[7] = read-out: PARP1 HTRF, probe displacement HTRF
[8] = PARP1 HTRF, PARP1 probe displacement HTRF

T1 sequence (Q9UGN5 whole entry, the tested form may be a part): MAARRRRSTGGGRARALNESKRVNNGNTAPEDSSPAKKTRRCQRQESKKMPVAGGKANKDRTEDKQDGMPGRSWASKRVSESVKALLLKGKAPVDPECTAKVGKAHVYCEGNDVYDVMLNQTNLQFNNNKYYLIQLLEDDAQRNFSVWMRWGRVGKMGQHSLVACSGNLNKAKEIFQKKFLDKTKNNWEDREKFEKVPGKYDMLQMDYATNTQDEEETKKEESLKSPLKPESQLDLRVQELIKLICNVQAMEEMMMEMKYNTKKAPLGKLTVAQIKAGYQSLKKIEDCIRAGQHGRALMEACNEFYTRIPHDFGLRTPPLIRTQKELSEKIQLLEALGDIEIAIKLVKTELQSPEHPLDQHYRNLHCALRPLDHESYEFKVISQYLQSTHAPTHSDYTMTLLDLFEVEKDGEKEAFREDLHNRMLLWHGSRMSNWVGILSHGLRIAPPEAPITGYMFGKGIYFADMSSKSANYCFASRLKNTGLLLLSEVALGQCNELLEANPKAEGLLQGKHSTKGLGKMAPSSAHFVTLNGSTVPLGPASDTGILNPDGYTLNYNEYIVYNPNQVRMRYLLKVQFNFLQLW

Row | Kd ([1]; PARP2 probe displacement HTRF) [nM] | IC50 [2, 4] [nM] | Kd [3, 5] [nM] | Kd ([1]; probe displacement HTRF) [nM] | IC50 [2, 6] [nM] | Kd [3, 7] [nM] | Kd [3, 8] [nM] | SMILES | Selectivity ([3]; probe displacement HTRF)
1 | > 10000 | < 10 | < 10 | – | – | – | – | CNC(=O)c1ccc(N2CCC(N3CCCC(c4nc5ccccc5c(=O)[nH]4)C3)CC2)c(Cl)n1 (single isomer, unassigned) [Compound 94b] | +++ (+++ indicate a value of at least 100)
2 | – | – | – | 100 to 1000 | < 10 | < 10 | – | CNC(=O)c1cc(N2CCC(N3CCC(c4cc5ccccc5c(=O)[nH]4)C3)CC2)cs1 (racemic) [Compound 296rac] | + (+ indicates a value of 10 to less than 50)
3 | < 10 | < 10 | < 10 | – | – | – | – | CNC(=O)c1ccc(N2CCC(N3CCC(c4nc5c(c(C(F)(F)F)cn5C)c(=O)[nH]4)C3)CC2)cn1 (single isomer, unassigned) [Compound 170a] | − (− indicates a value of less than 10)
4 | – | – | – | 1000 to 10000 | 10 to 100 | 10 to 100 | – | CCc1ccc(C2CCN(C3CCN(c4cnc(C(=O)NC)cc4C(F)(F)F)CC3)C2)[nH]c1=O (single isomer, unassigned) [Compound 298b] | +++ (+++ indicate a value of at least 100)
5 | – | – | – | 1000 to 10000 | < 10 | < 10 | – | CNC(=O)c1ccc(N2CCC(N3CCC(c4ccc(CCF)c(=O)[nH]4)C3)CC2)cn1 (racemic) [Compound 231rac] | +++ (+++ indicate a value of at least 100)
6 | 1000 to 10000 | 10 to 100 | 10 to 100 | – | – | – | – | N#Cc1ccc(N2CCC(N3CCCC(c4nc5ccccc5c(=O)[nH]4)C3)CC2)nc1 (single isomer, unassigned) [Compound 74b] | ++ (++ indicates a value of 50 to less than 100)
7 | > 10000 | 100 to 1000 | – | – | – | – | 100 to 1000 | CCc1ccc(C2CCN(CC3CCN(c4ccc(C(=O)NC)nc4)CC3)CC2)[nH]c1=O [Compound 47] | − (− indicates a value of less than 10)
8 | – | – | – | 1000 to 10000 | < 10 | < 10 | – | CNC(=O)c1ccc(N2CCC(N3CC(c4cc5cccc(F)c5c(=O)[nH]4)CC3=O)CC2)cn1 (racemic) [Compound 362rac] | +++ (+++ indicate a value of at least 100)
9 | – | – | – | 100 to 1000 | 100 to 1000 | 100 to 1000 | – | CS(=O)(=O)NC(=O)c1ccc(N2CCC(N3CCC(c4cc5ccccc5c(=O)[nH]4)C3)CC2)cc1 (single isomer, unassigned) [Compound 342a] | − (− indicates a value of less than 10)
10 | 100 to 1000 | < 10 | < 10 | – | – | – | – | CCc1ccc(C2CCN(C3CCN(c4ccc(C(=O)NCCF)nc4)CC3)C2)[nH]c1=O (single isomer, unassigned) [Compound 165a] | +++ (+++ indicate a value of at least 100)
11 | – | – | – | 1000 to 10000 | 100 to 1000 | 100 to 1000 | – | CS(=O)(=O)Nc1ccc(N2CCC(N3CCC(c4nc5ccccc5c(=O)[nH]4)C3)CC2)cc1 (single isomer, unassigned) [Compound 250a] | − (− indicates a value of less than 10)
12 | > 10000 | 10 to 100 | 10 to 100 | – | – | – | – | CCc1nc(C(=O)NC)ccc1N1CCC(N2CCC(c3nc4ccccc4c(=O)[nH]3)C2)CC1 (single isomer, unassigned) [Compound 118b] | ++ (++ indicates a value of 50 to less than 100)
13 | 10 to 100 | < 10 | < 10 | – | – | – | – | CNC(=O)c1ccc(N2CCC(N3CCC(c4[nH]c(=O)c5ccccc5c4Cl)C3)CC2)cn1 (single isomer, unassigned) [Compound 219a] | ++ (++ indicates a value of 50 to less than 100)
14 | > 10000 | 10 to 100 | 10 to 100 | – | – | – | – | CNC(=O)c1ccc(N2CCC(N3CCCC(F)(c4nc5ccccc5c(=O)[nH]4)C3)CC2)cn1 (single isomer, unassigned) [Compound 71b] | +++ (+++ indicate a value of at least 100)
15 | – | – | – | 1000 to 10000 | 10 to 100 | 10 to 100 | – | CNC(=O)c1ccc(N2CCC(N3CCC(c4nc5c(C(F)(F)F)cn(C)c5c(=O)[nH]4)C3)CC2)cn1 (racemic) [Compound 288rac] | +++ (+++ indicate a value of at least 100)
16 | 1000 to 10000 | < 10 | < 10 | – | – | – | – | CCc1ccc(C2CCN(C3CCN(c4ccc(C(=O)NCCOC)nc4)CC3)C2)[nH]c1=O (racemic) [Compound 160rac] | +++ (+++ indicate a value of at least 100)
17 | 1000 to 10000 | < 10 | < 10 | – | – | – | – | CNC(=O)c1ccc(N2CCC(N3CCC(c4cc5cccc(F)c5c(=O)[nH]4)C3)CC2)c(C)n1 (single isomer, unassigned) [Compound 206b] | +++ (+++ indicate a value of at least 100)
18 | > 10000 | < 10 | < 10 | – | – | – | – | CNC(=O)c1ccc(N2CCC(N3CCCC(c4nc5c(Cl)cccc5c(=O)[nH]4)C3)CC2)cn1 (single isomer, unassigned) [Compound 44a] | +++ (+++ indicate a value of at least 100)
19 | – | – | – | 100 to 1000 | < 10 | < 10 | – | CNC(=O)c1ccc(N2CCC(N3CCC(c4cc5c(F)cncc5c(=O)[nH]4)C3)CC2)cn1 (single isomer, unassigned) [Compound 331a] | +++ (+++ indicate a value of at least 100)
20 | – | – | – | > 10000 | 10 to 100 | 10 to 100 | – | CNC(=O)c1ccc(N2CCC(N3CCC(c4cnc(CC(F)(F)F)c(=O)[nH]4)C3)CC2)cn1 (single isomer, unassigned) [Compound 287a] | ++ (++ indicates a value of 50 to less than 100)
21 | – | – | – | 1000 to 10000 | 100 to 1000 | 100 to 1000 | – | CC(=O)Nc1ccc(N2CCC(N3CCC(c4nc5ccccc5c(=O)[nH]4)C3)CC2)cn1 (single isomer, unassigned) [Compound 262b] | + (+ indicates a value of 10 to less than 50)
22 | 1000 to 10000 | < 10 | – | – | – | – | < 10 | CCc1cnc(C2CCN(C3CCN(c4ccc(C(=O)NC)nc4)CC3)C2)[nH]c1=O (racemic) [Compound 42rac] | +++ (+++ indicate a value of at least 100)
23 | 100 to 1000 | < 10 | 10 to 100 | – | – | – | – | N#Cc1ccc(N2CCC(N3CCC(c4nc5ccccc5c(=O)[nH]4)C3)CC2)cn1 (single isomer, unassigned) [Compound 69a] | ++ (++ indicates a value of 50 to less than 100)
24 | 10 to 100 | < 10 | < 10 | – | – | – | – | CNC(=O)c1ccc(N2CCC(N3CCC(c4cc5cccc(Cl)c5c(=O)[nH]4)C3)CC2)cn1 (single isomer, unassigned) [Compound 128b] | ++ (++ indicates a value of 50 to less than 100)
25 | – | – | – | 100 to 1000 | < 10 | < 10 | – | CC(=O)NC(=O)c1ccc(N2CCC(N3CCC(c4cc5ccccc5c(=O)[nH]4)C3)CC2)cc1 (single isomer, unassigned) [Compound 341a] | +++ (+++ indicate a value of at least 100)
26 | – | – | – | 1000 to 10000 | 100 to 1000 | 100 to 1000 | – | CS(=O)(=O)Nc1ccc(N2CCC(N3CCC(c4cc5ccccc5c(=O)[nH]4)C3)CC2)cc1 (single isomer, unassigned) [Compound 251a] | − (− indicates a value of less than 10)
